For series [1], the target named is T1, alpha-synuclein/Synapsin III interaction (Homo sapiens, UniProt O14994+P37840).
T1 construct: expressed in transfected cells; host or cells: neuronal-differentiated (retinoic acid) human SK-N-SH neuroblastoma cells, transient transfection with Lipofectamine 3000
Kind of series: Acceptor photobleaching FRET of alpha-synuclein/Synapsin III interaction in neuronal-differentiated SK-N-SH cells. The class given is cell-based. To be noted: 10 μM, 15 min; for % FRET efficiency change vs MPH-treated cells: vs MPH 10 μM; for stimulation of alpha-synuclein/Synapsin III interaction (FRET efficiency), in words: vs basal. As for the experimental part: The ability of the different compound to stimulate alpha-synuclein/Synapsin III interaction was evaluated by acceptor photobleaching FRET or FLIM in neuronal-like cells. In particular, we used neuronal-differentiated SK—N—SH neuroblastoma cells transiently transfected with red fluorescent protein (RFP)-tagged human wild type alpha-synuclein and green fluorescent protein (GFP)-tagged the human 63 kDa Synapsin III isoform.
Acceptor photobleaching FRET microscopy allows an accurate evaluation of protein-protein interaction through the measurement of FRET efficiency. This parameter is indicative of the increase of donor fluorescence after complete photobleaching of the acceptor fluorescence, within a FRET pair of fluorophores (where the emission wavelength of a donor falls within the excitation wavelength of an acceptor). Since FRET efficiency is detectable only when the two fluorophores are sufficiently close to ensure that their linked proteins are interacting, the molecular proximity of these latter results strictly dependent on this parameter^36,37. […] Human neuroblastoma SK—N—SH cells were grown in complete medium comprising Dulbecco's modified Eagle's medium with 1000 mg glucose/l supplemented with 10% heat-inactivated fetal bovine serum, 100 μg/ml penicillin and 100 μg/ml streptomycin. Cells were maintained at 37° C. under a humidified atmosphere of 5% CO2 and […]. For FRET studies, SK—N—SH cells were seeded onto poli-D-lysine-coated 13 mm glass coverslips in 24-well plates (15000 cells per coverslip) and were maintained in differentiation medium for ten days by daily adding 10 μM retinoic acid to the medium. […] Fixed cells were analyzed by means of a Zeiss confocal laser microscope LSM 880 (Carl Zeiss) with the laser set on A=488-543. After identifying double positive cells three-to-six regions of interest (ROI) were analyzed for 4 series. Two images of basal condition (Pre-bleaching) were acquired before bleaching the RFP acceptor fluorophore with laser 543 set at 65% power. Then, other two images were acquired after the bleaching (Post-bleaching). The FRET efficiency (intended as the GFP recovery after RFP photobleaching) was measured by using Zen black software (Carl Zeiss). The average intensity of the background (outside the cell) was subtracted from the average intensity of the ROI and all the FRET values resulting from the different ROI were used for statistical analysis.
Human neuroblastoma SK—N—SH cells were grown in complete medium comprising Dulbecco's modified Eagle's medium with 1000 mg glucose/l supplemented with 10% heat-inactivated fetal bovine serum, 100 μg/ml penicillin and 100 μg/ml streptomycin. Cells were maintained at 37° C. under a humidified atmosphere of 5% CO2 and […]. For FRET studies, SK—N—SH cells were seeded onto poli-D-lysine-coated 13 mm glass coverslips in 24-well plates (15000 cells per coverslip) and were maintained in differentiation medium for ten days by daily adding 10 μM retinoic acid to the medium. […] Fixed cells were analyzed by means of a Zeiss confocal laser microscope LSM 880 (Carl Zeiss) with the laser set on λ=488-543. After identifying double positive cells three-to-six regions of interest (ROI) were analyzed for 4 series. Two images of basal condition (Pre-bleaching) were acquired before bleaching the RFP acceptor fluorophore with laser 543 set at 65% power. Then, other two images were acquired after the bleaching (Post-bleaching). The FRET efficiency (intended as the GFP recovery after RFP photobleaching) was measured by using Zen black software (Carl Zeiss). The average intensity of the background (outside the cell) was subtracted from the average intensity of the ROI and all the FRET values resulting from the different ROI were used for statistical analysis.

In series [2] the test system is primary mesencephalic cultures. The experiment in a line: MTT cell viability assay. To be noted: 24 h. The class given is cell-based, mouse. Here is the method: The cytotoxic effect of compounds treatment was measured by evaluating mitochondrial dehydrogenase activity using the MTT salt assay.
Neuronal differentiated SK—N—SH cells were thus exposed to different concentrations of I-threo, IV-threo, I-erythro, V-threo and V-erythro as described above, and then used for the MTT cell viability assay.
Animals: C57BL/6J wt mice (C57BL/6J) (Charles River, Wilmington, MA) used in this study, were bred in our animal house facility at the Department of Molecular and Translational Medicine of University of Brescia. Animals were maintained under a 12h light-dark cycle at a room temperature (rt) of 22° C. and had ad libitum food and water. All experiments were made in accordance to Directive 2010/63/EU of the European Parliament and of the Council of 22 Sep. 2010 on the protection of animals used. All experimental and surgical procedures conformed to the National Research Guide for the Care and Use of Laboratory Animals were approved by the Animal Research Committees of the University of Brescia (Protocol Permit 719/2015-PR). All achievements were made to minimize animal suffering and to reduce the number of animals used. Primary neuronal cultures from mesencephalic tissues were dissected from C57BL/6J 13-days embryos. Briefly, after mechanical dissociation the single cells were re-suspended in Neurobasal medium containing 100 μg/ml penicillin, 100 μg/ml streptomycin, 0.5 mM glutamine and 1% B27 supplement. Cells were then centrifuged and cell count and viability assays were performed using the Trypan Blue exclusion test. Cells were seeded onto poly-D-lysine-coated glass coverslides in 24-well plates (14 μg/mL) for immunocytochemistry (100000 cells/well). Cells were maintained at 37° C. under a humidified atmosphere of 5% CO2 and […] for at least 10 days in vitro (DIV 10) prior to their use to allow their maturation. At DIV 10, cells were treated with increasing concentrations (0.01 μM-0.1 μM-1 μM-[…]) of the different compounds (I-threo, IV-threo, I-erythro, V-threo, VI-threo). Twenty-four h after the treatments, culture medium was removed and 300 μL of MTT 0.5 mg/mL diluted in culture medium was added to each well. After 90′ incubation at 37° C., the medium was removed and 250 μL aliquots of DMSO were added to each well to solubilize the formazan crystals. Absorbance was measured at 570 nm using a microplate reader. Cell viability was expressed as absorbance value.

The test system of series [3] is alpha-synuclein aggregation in SK—N—SH cells. Kind of series: Alpha-synuclein aggregation after glucose deprivation in SK-N-SH alpha-synuclein stable clones (immunocytochemistry). Format: cell-based, human. To be noted: for alpha-synuclein aggregates seen in images after GD: 24 h, vs non-treated (NT) cells, preliminary. Here is the method:
Human neuroblastoma SK—N—SH full length (fl) alpha-synuclein stable clones were seeded onto poly-D-lysine-coated glass coverslides in 24-well plates and were grown in complete medium comprising Dulbecco's modified Eagle's medium with 1000 mg glucose/l supplemented with 10% heat-inactivated fetal bovine serum, 100 μg/ml penicillin and 100 μg/ml streptomycin. Cells were maintained at 37° C. under a humidified atmosphere of 5% CO2 and […]. At 80% confluence, cells underwent glucose deprivation (GD) in order to induce alpha-synuclein aggregation (Bellucci, A.; et al. Journal of neurochemistry 2008, 106, 560-577). Briefly, GD was performed through an incubation of the cells with Hank's balanced salt solution supplemented with 2 mM glutamine and 10% heat-inactivated fetal bovine serum, for 1 h at 37° C. […] After 24 h of treatment, cells were fixed by incubating for 15 min in 4% paraformaldehyde with 4% sucrose in 1 M PBS, pH 7.4. The fixed cells were then stored in PBS-containing 0.05% sodium azide. Slides were incubated for 1 h at room temperature in blocking solution [2% w/v bovine serum albumin (BSA) plus 3% v/v normal goat serum in PBS], then overnight at 4° C. with the primary antibody (Syn211 antibody against alpha-synuclein) at the optimal working dilution. On the following day, cells were incubated for 1 h at room temperature with the Cy3-conjugated secondary antibody diluted in 0.1% Triton X-100 PBS plus BSA 1 mg/ml. Finally, cell nuclei were counterstained with Hoechst 33258 dye, and the coverslips were mounted onto glass slides using Vectashield.

Series [4] concerns alpha-synuclein aggregation in primary mesencephalic neurons. Kind of series: Alpha-synuclein aggregation in primary mouse midbrain neurons exposed to glucose deprivation. The class given is cell-based. To be noted: I-threo, VI-threo 50 and 100 nM, MPH 100 nM.
In series [5] the test system is aged human alpha-synuclein transgenic mouse model of Parkinson's disease. To be noted: independent of dopamine transporter inhibition; abolished by Synapsin III gene silencing; cited from earlier work.
Series [6] relates to advanced Parkinson's disease. To be noted: cited from earlier work.

SMILES strings stand for the structures. pEC50: −log10 of the molar value. “Also recorded” adds a separate entry of the source.

T1 sequence (O14994 whole entry, one chain of several): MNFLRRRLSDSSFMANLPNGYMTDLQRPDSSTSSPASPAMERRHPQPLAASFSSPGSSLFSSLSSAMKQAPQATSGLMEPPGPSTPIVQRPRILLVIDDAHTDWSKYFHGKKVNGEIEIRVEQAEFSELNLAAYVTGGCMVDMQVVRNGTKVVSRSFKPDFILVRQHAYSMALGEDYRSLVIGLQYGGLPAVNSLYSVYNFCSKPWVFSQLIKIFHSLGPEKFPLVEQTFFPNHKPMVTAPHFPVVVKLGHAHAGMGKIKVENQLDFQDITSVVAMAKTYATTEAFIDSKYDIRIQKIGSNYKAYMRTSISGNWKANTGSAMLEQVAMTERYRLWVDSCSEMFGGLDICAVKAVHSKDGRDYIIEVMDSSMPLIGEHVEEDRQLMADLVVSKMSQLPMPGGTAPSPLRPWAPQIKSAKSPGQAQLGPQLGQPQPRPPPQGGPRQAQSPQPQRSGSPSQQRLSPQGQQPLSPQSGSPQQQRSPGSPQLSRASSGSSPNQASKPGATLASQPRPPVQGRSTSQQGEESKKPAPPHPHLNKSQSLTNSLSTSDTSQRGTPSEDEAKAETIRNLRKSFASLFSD

As to `COC(=O)[C@@H](Cc1ccc(C)cc1)C1CCCCN1.Cl` (stereo partly drawn) [IX-threo], in series [1], the “% FRET efficiency change vs MPH-treated cells” value is given as “+4.6%”.

For `COC(=O)[C@@H](c1ccc(C)cc1)C1CCCCN1C.Cl` (stereo partly drawn) [VI-threo, threo methyl 2-(1-methylpiperidin-2-yl)-2-(p-tolyl)acetate hydrochloride], in series [2] (concentrations reducing aggregation or stimulating interaction), the “toxic effects (MTT) at the working concentrations” value was “did not exhibit toxic effects”. Moreover, in series [3] (10 μM), the “alpha-synuclein aggregates seen in images after GD” value is recorded as “no aggregates were observed”. Moreover, the “formation of alpha-synuclein inclusions after GD (immunofluorescence intensity and average particle size)” value in series [3] (10 μM, 24 h after 1 h glucose deprivation, vs untreated, hydrochloride) is listed as “significantly reduce the formation of alpha-synuclein inclusions; also recorded: significantly reduce alpha-synuclein aggregation in vitro”. Moreover, in series [4], the “alpha-synuclein inclusion formation (total immunofluorescence intensity and particle size)” value was “did not reduce alpha-synuclein aggregation”. Besides, the “% FRET efficiency change vs control untreated cells” value in series [1] (neuronally differentiated SK-N-SH cells) is listed as “+3.4%”.

As for `COC(=O)[C@@H](c1ccc(-c2ccccc2)cc1)C1CCCCN1.Cl` (stereo partly drawn) [V-threo], the “concentration from which markedly toxic (MTT)” value in series [2] (0.01-100 μM tested) is at least 100 nM. Further, the “cytotoxicity (MTT), in words” value in series [2] (low concentrations) is recorded as “cytotoxicity at low concentrations”. Besides, in series [1], the “stimulation of alpha-synuclein/Synapsin III interaction (FRET efficiency), in words” value is given as “not able to stimulate alpha-synuclein/Synapsin III interaction; also recorded: No significant increase”.

As to `COC(=O)[C@@H](c1ccc2ccccc2c1)C1CCCCN1.Cl` (stereo partly drawn) [IV-threo], in series [2] (100 μM), the “cell viability (MTT) at 100 μM” value is reported as “the same profile of I-threo; also recorded: significant decrease in cell viability”. Besides, the “stimulation of alpha-synuclein/Synapsin III interaction (FRET efficiency), in words” value in series [1] is on record as “not able to stimulate alpha-synuclein/Synapsin III interaction; also recorded: No significant increase”.

For the molecule `COC(=O)[C@@H](Cc1ccccc1)C1CCCCN1.Cl` (stereo partly drawn) [VII-threo, threo methyl 3-phenyl-2-(piperidin-2-yl)propanoate hydrochloride], the “% FRET efficiency change vs MPH-treated cells” value in series [1] was “+4.3%”.

Take `COC(=O)C(c1ccccc1)C1CCCCN1` (stereo not shown) [MPH, Methylphenidate, reference compound]: the “Synapsin III-dependent locomotor activity” value in series [5] is given as “over-stimulate a Synapsin III-dependent locomotor activity”. The freezing of gait result in series [6] is reported as “efficiently counteract freezing of gait”. In addition, in series [3] (10 μM), the “alpha-synuclein aggregates seen in images after GD” value was “a reduction in the formation of alpha-synuclein aggregates”. Also, the pEC50 in series [3] (Homo sapiens, SK-N-SH cells, read-out: EC50 in reducing alpha-synuclein aggregation) was 4.43.
